# In ChEMBL document CHEMBL1130803, “Anti-HIV pronucleotides: decomposition pathways and correlation with biological activities” (Bioorg Med Chem Lett, 1998):
# Experiments:
# CCRF-CEM [1] = test: Compound was evaluated for cytotoxicity against thymidine kinase deficient CEM cell line infected with HIV-1; assay type: functional; conditions: Homo sapiens
# CCRF-CEM [2] = test: Compound was evaluated for anti-HIV activity against thymidine kinase deficient CEM cell line infected with HIV-1; assay type: functional, cell-based; conditions: Homo sapiens
# [3] = Half-life at initial concentration of 5*10e-5 M in CEM cell extract; assay type: ADME, CCRF-CEM; conditions: human
EC50 (CCRF-CEM [2]),half-life [3],SMILES,CC50 (CCRF-CEM [1])
> 10 µM,1.5 h,CC(=O)OCCNP(=O)(OCC1OC(n2cc(C)c(=O)[nH]c2=O)CC1N=[N+]=[N-])Oc1ccccc1 (centres undefined),> 10 µM
> 100 µM,–,Cc1cn([C@H]2C[C@H](N=[N+]=[N-])[C@@H](CO)O2)c(=O)[nH]c1=O [ZIDOVUDINE],> 100 µM
63 µM,21 h,COC(=O)CNP(=O)(OCC1OC(n2cc(C)c(=O)[nH]c2=O)CC1N=[N+]=[N-])Oc1ccccc1 (centres undefined),> 100 µM
> 100 µM,> 8 h,COC(=O)CCNP(=O)(OCC1OC(n2cc(C)c(=O)[nH]c2=O)CC1N=[N+]=[N-])Oc1ccccc1 (centres undefined),> 100 µM

SMILES,EC50 (CCRF-CEM [2]),half-life [3],CC50 (CCRF-CEM [1])
COC(=O)[C@H](C)NP(=O)(OC[C@H]1O[C@@H](n2cc(C)c(=O)[nH]c2=O)C[C@@H]1N=[N+]=[N-])Oc1ccccc1 (some centres undefined),4.1 µM,2.5 h,97 µM
